According to US20160287589A1, “SUBSTITUTED-IMIDAZOPYRIDAZINES” (BAYER PHARMA AKTIENGESELLSCHAFT, priority 2013, published 2016):

Key:
[1] = biological target: T1, MKNK1 (Homo sapiens, UniProt Q9BUB5, T385D); test: MKNK1 kinase high ATP assay (TR-FRET-based); format: biochemical; conditions: 2 mM ATP, 15 min preincubation
T1 construct: GST (N); purchased Carna Biosciences 02-145; host or cells: insect cells (baculovirus expression system)
In short: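 TR-FRET read-out (anti-phospho-S6 Ser236 antibody, Eu/XL665) of biotin-peptide phosphorylation (0.06 μM) at high ATP (2 mM final). Enzyme was GST-MKNK1 full length, T344D, pre-bound to compound for 15 min before a 30 min reaction at 22 °C, pH 7.5. Inhibition scaled between no-inhibitor (0%) and no-enzyme (100%) wells.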

[2] = biological target: T1, MKNK1; test: MKNK1 kinase assay (MKNK1 TR-FRET assay); format: biochemical; conditions: 10 μM ATP, 15 min preincubation

T1 sequence (Q9BUB5 1-424 isoform Q9BUB5-2 T344D): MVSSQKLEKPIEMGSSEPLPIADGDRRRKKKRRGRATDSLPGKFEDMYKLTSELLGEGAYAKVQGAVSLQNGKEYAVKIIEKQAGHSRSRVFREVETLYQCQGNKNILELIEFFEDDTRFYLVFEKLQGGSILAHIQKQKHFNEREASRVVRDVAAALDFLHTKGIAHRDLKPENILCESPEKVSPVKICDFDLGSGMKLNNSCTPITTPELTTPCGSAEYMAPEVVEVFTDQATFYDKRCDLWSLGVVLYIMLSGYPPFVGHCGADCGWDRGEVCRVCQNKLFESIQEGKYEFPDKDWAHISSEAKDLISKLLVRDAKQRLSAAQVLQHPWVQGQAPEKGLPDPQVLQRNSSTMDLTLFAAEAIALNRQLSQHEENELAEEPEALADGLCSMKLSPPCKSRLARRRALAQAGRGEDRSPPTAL

SMILES	IC50 ([1]; Table 2b) [nM]	IC50 ([2]; Table 1b) [nM]	IC50 ([1]; Table 2a) [nM]	IC50 ([2]; Table 1a) [nM]	IC50 ([1]; Table 2c) [nM]	IC50 ([2]; Table 1c) [nM]
CN1C(=O)CC[C@H]1COc1ccc2ncc(-c3cc4ccccc4o3)n2n1 [Example I-32, (5S)-5-({[3-(1-Benzofuran-2-yl)imidazo[1,2-b]pyridazin-6-yl]oxy}methyl)-1-methylpyrrolidin-2-one]	–	–	39.8	13.7	–	–
O=C1CNC[C@H](COc2ccc3ncc(-c4cc5ccccc5o4)n3n2)N1 [Example I-42, (6R)-6-({[3-(1-Benzofuran-2-yl)imidazo[1,2-b]pyridazin-6yl]oxy}methyl)-piperazin-2-one]	–	–	26.8	14.2	–	–
O=C(C1CCC1)N1CCC[C@H]1CCOc1ccc2ncc(-c3cc4ccccc4o3)n2n1 [Example I-54, [(2S)-2-(2-{[3-(1-Benzofuran-2-yl)imidazo[1,2-b]-pyridazin-6-yl]oxy}ethyl)pyrrolidin-1-yl](cyclobutyl)methanone]	–	–	3.7	2	–	–
NC(=O)COc1ccc2ncc(-c3cc4ccccc4o3)n2n1 [Example I-24, 2-{[3-(1-Benzofuran-2-yl)imidazo[1,2-b]pyridazin-6-yl]oxy}acetamide]	–	–	20.7	12.5	–	–
O=C(NCCOc1ccc2ncc(-c3cc4ccccc4o3)n2n1)C1CCCO1 (stereo not shown) [Example I-78, N-(2-{[3-(1-Benzofuran-2-yl)imidazo[1,2-b]-pyridazin-6-yl]oxy}ethyl)tetrahydrofuran-2-carboxamide]	–	–	23	6.7	–	–
O=C1CCCN1CCCOc1ccc2ncc(-c3cc4ccccc4o3)n2n1 [Example I-22, 1-(3-{[3-(1-Benzofuran-2-yl)imidazo[1,2-b]pyridazin-6-yl]oxy}propyl)pyrrolidin-2-one]	–	–	18.6	12.6	–	–
COc1ccc2oc(-c3cnc4ccc(OC[C@@H]5CCC(=O)N5)nn34)cc2c1 [Example I-13, (5S)-5-({[3-(5-methoxy-1-benzofuran-2-yl)imidazo[1,2-b]pyridazin-6-yl]oxy}methyl)pyrrolidin-2-one]	–	–	10.7	3.7	–	–

The next lines start with the values.

IC50 ([1]; Table 2b) [nM]	IC50 ([2]; Table 1b) [nM]	IC50 ([1]; Table 2a) [nM]	IC50 ([2]; Table 1a) [nM]	IC50 ([1]; Table 2c) [nM]	IC50 ([2]; Table 1c) [nM]	SMILES
43.2	26.7	–	–	–	–	C[C@H]1COCCN1c1cccc2oc(-c3cnc4ccc(O[C@H]5C[C@H](N)C5)nn34)cc12 [II-34, trans-3-[(3-{4-[(3S)-3-methylmorpholin-4-yl]-1-benzofuran-2-yl}imidazo[1,2-b]pyridazin-6-yl)oxy]cyclobutanamine]
0.6	2.3	–	–	–	–	C[C@H]1CNCCN1c1cccc2oc(-c3cnc4ccc(OC[C@H]5CCC(=O)N5)nn34)cc12 [II-30, (5R)-5-{[(3-{4-[(2S)-2-methylpiperazin-1-yl]-1-benzofuran-2-yl}imidazo[1,2-b]pyridazin-6-yl)oxy]methyl}pyrrolidin-2-one]
2.7	2.4	–	–	–	–	COC[C@H]1CCCN1c1cccc2oc(-c3cnc4ccc(OCCCS(C)(=O)=NC#N)nn34)cc12 (mixture of isomers) [II-25, [{3-[(3-{4-[2-(Methoxymethyl)pyrrolidin-1-yl]-1-benzofuran-2-yl}imidazo-[1,2-b]pyridazin-6-yl)oxy]propyl}(methyl)oxido-λ^6-sulfanylidene]cyanamide]
3.8	2.9	–	–	–	–	COc1ccc2ncc(-c3cc4c(N5CCNC[C@H]5C)cccc4o3)n2n1 [II-44, 6-methoxy-3-{4-[(2R)-2-methylpiperazin-1-yl]-1-benzofuran-2-yl}imidazo[1,2-b]pyridazine]
37.5	21.7	–	–	–	–	C[C@H]1CN(c2cccc3oc(-c4cnc5ccc(O[C@H]6C[C@H](N)C6)nn45)cc23)CCO1 [II-43, trans-3-[(3-{4-[(2S)-2-methylmorpholin-4-yl]-1-benzofuran-2-yl}imidazo[1,2-b]pyridazin-6-yl)oxy]cyclobutanamine]
–	–	–	–	8	2.9	O=C1CNC[C@H](COc2ccc3ncc(-c4cc5c(N6CCOCC6)nccc5o4)n3n2)N1 [III-89, (6R)-6-[({3-[4-(Morpholin-4-yl)furo[3,2-c]pyridin-2-yl]imidazo[1,2-b]pyridazin-6-yl}oxy)methyl]piperazin-2-one]
–	–	–	–	0.5	0.7	CCN(CCOC)c1nccc2oc(-c3cnc4ccc(OC[C@@H]5CCC(=O)N5)nn34)cc12 [III-86, (S)-5-{[(3-{4-[Ethyl(2-methoxyethyl)amino]furo[3,2-c]pyridin-2-yl}imidazo[1,2-b]pyridazin-6-yl)oxy]methyl}pyrrolidin-2-one]
1.4	2.6	–	–	–	–	C[C@H]1CNCCN1c1cccc2oc(-c3cnc4ccc(OCCCS(C)(=O)=O)nn34)cc12 [II-58, 3-{4-[(2S)-2-methylpiperazin-1-yl]-1-benzofuran-2-yl}-6-[3-(methylsulfonyl)propoxy]im-idazo[1,2-b]pyridazine]
49.6	16.7	–	–	–	–	C[C@@H](N)COc1ccc2ncc(-c3cc4c(N5CCOC(C)(C)C5)cccc4o3)n2n1 [II-35, (2R)-1-({3-[4-(2,2-dimethylmorpholin-4-yl)-1-benzofuran-2-yl]imidazo[1,2-b]pyridazin-6-yl}oxy)propan-2-amine]
–	–	–	–	2.6	5.3	CC1(C)CN(c2nccc3oc(-c4cnc5ccc(OCC(F)(F)F)nn45)cc23)CCN1 [III-126, 3-[4-(3,3-dimethylpiperazin-1-yl)furo[3,2-c]pyridin-2-yl]-6-(2,2,2-trifluoroethoxy)imidazo [1,2-b]pyridazine]
–	–	–	–	19.1	11.6	COC[C@@H]1CCCN1c1nccc2oc(-c3cnc4ccc(OC[C@H]5CCC(=O)N5)nn34)cc12 [III-83, (5R)-5-{[(3-{4-[(2S)-2-(Methoxymethyl)pyrrolidin-1-yl]furo[3,2-c]pyridin-2-yl}imidazo[1,2-b]pyridazin-6-yl)oxy]methyl}pyrrolidin-2-one]
–	–	–	–	0.9	0.7	CCN(CCOC)c1nccc2oc(-c3cnc4ccc(OC[C@H](C)N)nn34)cc12 [III-18, 2-(6-{[(2S)-2-Aminopropyl]oxy}imidazo[1,2-b]pyridazin-3-yl)-N-ethyl-N-(2-methoxyethyl)furo[3,2-c]pyridin-4-amine]
–	–	–	–	0.6	2.7	CCN(CCOC)c1nccc2oc(-c3cnc4ccc(OCCC[S@@](C)(=O)=NC#N)nn34)cc12 [III-137, [{3-[(3-{4-[ethyl(2-methoxyethyl)ami-no]furo[3,2-c]pyridin-2-yl}imidazo[1,2-b]pyridazin-6-yl)oxy]propyl}(methyl)oxido-λ^6-sulfanylidene]cyanamide]
–	–	–	–	8.1	4.4	CS(=O)(=O)CCCOc1ccc2ncc(-c3cc4c(N5CCCCC5)nccc4o3)n2n1 [III-45, 6-[3-(methylsulfonyl)propoxy]-3-[4-(piperidin-1-yl)furo[3,2-c]pyridin-2-yl]imidazo[1,2-b]pyridazine]
2.7	2	–	–	–	–	COC[C@H]1CCCN1c1cccc2oc(-c3cnc4ccc(OC[C@H](C)N)nn34)cc12 [II-8, (2S)-1-[(3-{4-[(2R)-2-(Methoxymethyl)pyrrolidin-1-yl]-1-benzofuran-2-yl}-imidazo[1,2-b]pyridazin-6-yl)oxy]propan-2-amine]
–	–	–	–	42.7	12.2	C[C@H](N)COc1ccc2ncc(-c3cc4c(N5C[C@@H](C)O[C@@H](C)C5)nccc4o3)n2n1 [III-19, (2S)-1-[(3-{4-[(2R,6S)-2,6-Dimethylmorpholin-4-yl]furo[3,2-c]pyridin-2-yl}imidazo[1,2-b]pyridazin-6-yl)oxy]propan-2-amine]
